Tested on: murine macrophages
Test: In vitro activation of murine macrophages (macrophage-mediated tumor cytotoxicity against P815 cells)
Assay type: cell-based
Conditions: for Percent Macrophage Cytotoxicity: 48 hours; for immunomodulatory activity: in the in vitro assay
Protocol: In one procedure, the ability of the compounds to activate murine macrophages in vitro was determined. Peritoneal macrophages were exposed to a compound of formula 1, 2, or 3 simultaneously with the addition of target cells. Tumor cytotoxicity of these treated macrophages was determined 48 hours later by trypan blue enumeration. The percentage of growth inhibition of P815 cells due to composition-mediated macrophage activation was calculated by comparison to that of P815 cells grown in the.presence of macrophages exposed to buffer.

Structure (SMILES)	Percent Macrophage Cytotoxicity (Fosfomycin 10 µg/ml, Experiment 1) [%]	Percent Macrophage Cytotoxicity (Fosfomycin 10 µg/ml, Experiment 2) [%]	Percent Macrophage Cytotoxicity (Fosfomycin 100 µg/ml, Experiment 1) [%]	Percent Macrophage Cytotoxicity (Fosfomycin 100 µg/ml, Experiment 2) [%]	immunomodulatory activity
C[C@@H]1O[C@@H]1P(=O)(O)O [Fosfomycin, reference compound]	49	11	47	30	
C[C@H](N)C(=O)N[C@@H](C)P(=O)(O)O [alaphosphin, L-alanyl-L-1-aminb-- ethylphosphonic acid, reference compound]					did not exhibit immunomodulatory activity
O=CN(O)CCCP(=O)(O)O [fosmidomycin, reference compound]					did not exhibit immunomodulatory activity

Reference: patent publication EP0107907A2, “Improvements in or relating to immunomodulating agents” (ELI LILLY AND COMPANY, priority 1982, dated 1984)
